Reference: US20020123480A1, “Methods and compositions utilizing 2'-5' oligoadenylates in the treatment of disorders of cell proliferation” (priority 2000, published 2002)
≈ marks a conversion by molar mass, not a printed value. Where two headings read alike, the source gives them in different places.

How the values were obtained:
[1] = system: human papillomavirus (HPV)-positive cell lines; test: Growth of human papillomavirus (HPV)-positive cell lines in presence of test compounds; type: cell-based
Experimental: See […] et at., Oncol Res. 10, 523-31 (1998) and J. A. Johnson et al., Antimicrob. Agents Chemother. 43, 1198-205 (1999). […] For these experiments, the cells were seeded in 96-well microtiter plates and after 24 hours of growth, serial dilutions of the test compounds were added. The cells were not fed after addition of the compounds. After three, five, seven and ten days, the cells were harvested by trypsinization and counted with a Coulter Counter. Duplicate wells were analyzed for each dilution and the results averaged.

[2] = system: primary human cervical keratinocytes (PHK); test: Growth of control primary human cervical keratinocytes, Coulter Counter cell count; type: cell-based; settings: for IC50: Homo sapiens, Keratinocyte
[3] = system: HeLa (HPV-18-positive); test: Growth of HPV-positive HeLa cells, Coulter Counter cell count; type: cell-based, human; settings: for IC50: Homo sapiens
[4] = system: EiL8 (HPV-16-positive); test: Growth of HPV-positive EiL8 cells, Coulter Counter cell count; type: cell-based, human; settings: for IC50: Homo sapiens, read-out: IC50 (concentration required to reduce cell growth by 50%)
Experimental: (§1) The cells used in the first study included CK-1 (HPV-33-positive), EiL8 (HPV-16-positive), SiHa (HPV-16-positive) and HeLa (HPV-18-positive) and control primary human cervical keratinocytes (PHK). The cells were cultured in growth medium at 37° C., in 5% CO2. For these experiments, the cells were seeded in 96-well microtiter plates and after 24 hours of growth, serial dilutions of the test compounds were added. The cells were not fed after addition of the compounds. After three, five, seven and ten days, the cells were harvested by trypsinization and counted with a Coulter Counter. Duplicate wells were analyzed for each dilution and the results averaged. The number of cells recovered at each dilution was compared to the number of cells in untreated control wells and the concentration of test compound required to reduce cell growth by 50 percent (IC50) was determined.

[5] = system: CK-1 (HPV-33-positive); test: cells; type: cell-based; settings: for IC50: Homo sapiens, read-out: IC50 (concentration required to reduce cell growth by 50%)
[6] = system: SiHa (HPV-16-positive); test: Growth of HPV-positive SiHa cells, Coulter Counter cell count; type: cell-based, human; settings: for IC50: Homo sapiens
[7] = system: human foreskin fibroblast (HFF) cells; test: Growth of human foreskin fibroblasts, neutral red uptake and counting of cells; type: cell-based
Experimental: as §1
(§2) The human foreskin fibroblast (HFF) cells were cultured in growth medium as described above, but assayed by neutral red uptake and counting of cells. The human embryonic lung fibroblast (HEL) cells were cultured in growth medium and assayed as described above by counting with a Coulter Counter. Daudi cells, an Epstein-Barr Virus (EBV)-positive Burkitt's lymphoma tumor cell line, were cultured in growth medium as described above and assayed by the neutral red uptake assay. […]

[8] = system: Daudi cells, an Epstein-Barr Virus (EBV)-positive Burkitt's lymphoma tumor cell line; test: Growth of Daudi cells, neutral red uptake assay; type: cell-based, human
Experimental: as §1, §2

[9] = system: human papillomavirus (HPV)-positive cell lines; settings: literature (Andrei 1998; Johnson 1999); cited from earlier work
[10] = 72 h, Day 3, read-out: IC50 (concentration required to reduce cell growth by 50%)
[11] = 120 h, Day 5, read-out: IC50 (concentration required to reduce cell growth by 50%)
[12] = 168 h, Day 7, read-out: IC50 (concentration required to reduce cell growth by 50%)
[13] = 240 h, Day 10, read-out: IC50 (concentration required to reduce cell growth by 50%)

Nc1nc2c(ncn2COCCO)c(=O)[nH]1 [acyclovir, reference compound]
growth inhibition / anti-proliferative activity (in words) [1]: With the exception of acyclovir, growth inhibition was observed

2′,3′-cyclophosphateadenylyl(2′,5′)adenylyl-(2′,5′)adenosine [Cmpd. I]
IC50 (concentration required to reduce cell growth by 50%) ([2]; Day 3): 110 µg/mL
IC50 (concentration required to reduce cell growth by 50%) ([2]; Day 5): 168 µg/mL
IC50 (concentration required to reduce cell growth by 50%) ([2]; Day 7): 262 µg/mL
IC50 (concentration required to reduce cell growth by 50%) ([2]; Day 10): 280 µg/mL
IC50 (concentration required to reduce cell growth by 50%) ([3]; Day 3): 66 µg/mL
IC50 (concentration required to reduce cell growth by 50%) ([3]; Day 5): 62 µg/mL
IC50 (concentration required to reduce cell growth by 50%) ([3]; Day 7): 90 µg/mL
IC50 (concentration required to reduce cell growth by 50%) ([3]; Day 10): 160 µg/mL
IC50 (concentration required to reduce cell growth by 50%) ([4]; EiL8, Day 3): 63 µg/mL
IC50 (concentration required to reduce cell growth by 50%) ([4]; EiL8, Day 5): 68 µg/mL
IC50 (concentration required to reduce cell growth by 50%) ([4]; EiL8, Day 7): 103 µg/mL
IC50 (concentration required to reduce cell growth by 50%) ([4]; EiL8, Day 10): 180 µg/mL
IC50 (concentration required to reduce cell growth by 50%) ([5]; CK-1, Day 3): 100 µg/mL
IC50 (concentration required to reduce cell growth by 50%) ([5]; CK-1, Day 5): 46 µg/mL
IC50 (concentration required to reduce cell growth by 50%) ([5]; CK-1, Day 7): 104 µg/mL
IC50 (concentration required to reduce cell growth by 50%) ([5]; CK-1, Day 10): 303 µg/mL
IC50 (concentration required to reduce cell growth by 50%) ([6]; Day 3): 150 µg/mL
IC50 (concentration required to reduce cell growth by 50%) ([6]; Day 5): 108 µg/mL
IC50 (concentration required to reduce cell growth by 50%) ([6]; Day 7): 141 µg/mL
IC50 (concentration required to reduce cell growth by 50%) ([6]; Day 10): 193 µg/mL
inhibition of growth (in words) [7]: inhibit the growth
inhibition of growth (in words) [8]: inhibit the growth
growth inhibition / anti-proliferative activity (in words) [1]: anti-proliferative activity

Nc1ccn(C[C@@H](CO)OCP(=O)(O)O)c(=O)n1 [HPMPC, 3-hydroxy-2-phosphonylmethoxy-propyl cytosine, reference compound]
IC50 [2, 10]: 9.9 µg/mL (≈ 35.5 µM)
IC50 [2, 11]: 7 µg/mL (≈ 25.1 µM)
IC50 [2, 12]: 6.4 µg/mL (≈ 22.9 µM)
IC50 [2, 13]: 3.7 µg/mL (≈ 13.3 µM)
IC50 [3, 10]: 37 µg/mL (≈ 133 µM)
IC50 [3, 11]: 5.6 µg/mL (≈ 20.1 µM)
IC50 [3, 12]: 3.9 µg/mL (≈ 14 µM)
IC50 [3, 13]: 4.7 µg/mL (≈ 16.8 µM)
IC50 ([4]; 72 h, EiL8, Day 3): 39 µg/mL (≈ 140 µM)
IC50 ([4]; 120 h, EiL8, Day 5): 7.9 µg/mL (≈ 28.3 µM)
IC50 ([4]; 168 h, EiL8, Day 7): 4.2 µg/mL (≈ 15 µM)
IC50 ([4]; 240 h, EiL8, Day 10): 3.5 µg/mL (≈ 12.5 µM)
IC50 ([5]; CK1, 72 h, CK-1, Day 3): 32 µg/mL (≈ 115 µM)
IC50 ([5]; CK1, 120 h, CK-1, Day 5): 1.1 µg/mL (≈ 3.94 µM)
IC50 ([5]; CK1, 168 h, CK-1, Day 7): 0.5 µg/mL (≈ 1.79 µM)
IC50 ([5]; CK1, 240 h, CK-1, Day 10): 1.2 µg/mL (≈ 4.3 µM)
IC50 [6, 10]: 179 µg/mL (≈ 641 µM)
IC50 [6, 11]: 8.6 µg/mL (≈ 30.8 µM)
IC50 [6, 12]: 4.7 µg/mL (≈ 16.8 µM)
IC50 [6, 13]: 4 µg/mL (≈ 14.3 µM)
inhibition of proliferation of HPV-transformed cells (in words) [9]: inhibit the proliferation
